SMILES strings stand for the structures.

This note sets out measurements from patent publication US12059413B2, “Methods of inhibiting viruses using compositions targeting TSG101-ubiquitin interaction” (The Research Foundation for the State University of New York, priority 2016, dated 2024).

For one experiment, the target named is T1, Tsg101 UEV domain (Homo sapiens, UniProt Q99816).
T1 construct: Tsg101 UEV domain (residues 2-145) was encoded in a pET-28b vector; His6-TEV site (N, cleaved yes); made in house; host or cells: E. coli Rosetta 2 (DE3) pLysS
T1 sequence (Q99816 2-145): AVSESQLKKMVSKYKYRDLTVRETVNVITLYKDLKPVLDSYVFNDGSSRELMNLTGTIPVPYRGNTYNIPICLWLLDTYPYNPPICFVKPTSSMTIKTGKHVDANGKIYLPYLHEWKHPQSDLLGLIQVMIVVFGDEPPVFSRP
Description: Tsg101 melting curves with compounds, relative fluorescence (RFU) shift. The experiment is classed as binding. The following applies: at 20 uM. How it is done: FIG. 13B. TSG101 binding of prazole compounds. Melting curves of TSG101 with various prazole compounds assayed by relative fluorescence (RFU) shift. Two control compounds, K21 and N20, had no effect at 40 μM on the Tsg101 melting curve.
FIG. 14A-F. The ubiquitin E2 variant (UEV) domain of Tsg101 was purified by attaching it to an N-terminal His tag with a Tobacco Etch Virus nuclear-inclusion-a endopeptidase (TEV) cleavage site and isolating the tagged protein through two consecutive nickel columns. The first nickel column bound the Tsg101 with the His tag. Following cleavage of the His tag, Tsg101 flowed straight through the second column, removing any impurities from the cell lysate that also bound to the column in step 1, as well as the TEV protease enzyme.
F) Dose-dependence of Tsg101 normalized melting curves for N16 (top) and F15 (bottom). At same concentration, N16 shifts the melting curve to a greater extent to the left than F15. Specifically, at 20 uM, N16 caused a 12 degree Tm shift while F15 gave rise a 5 degree Tm shift. This difference correlated with the potency observed in the cell-based assay. The plot for N16 contains two control compounds, K21 and N20, which have no effect at 40 uM on the Tsg101 melting curve.

Experiment [1] deals with Gag-Tsg101 co-localization on the plasma membrane. Description: Gag-Tsg101 co-localization by fluorescence microscopy, Pearson's coefficient. The experiment is classed as cell-based. How it is done:
FIG. 19A-F. N16 (50 μM) prevents co-localization of Gag and Tsg101 on the plasma membrane. A-E) Fluorescence microscopy images of cells that co-express Tsg101-Myc alone or GagWT-GFP and Tsg101-Myc. Cells grown on coverslips were co-transfected with DNA encoding Tsg101-Myc (A) or Tsg101-Myc and GagWT-GFP (B, D and E) or GagP7L-GFP (C) and treated with F15 (D) or N16 (E). After 24 hr the coverslips were processed for microscopy with Tsg101-Myc detected with anti-Myc antibody and Texas Red secondary antibody as described in Materials & Methods. A) Tsg101-Myc in cells treated with DMSO carrier (top) or N16 (bottom). B-E), Top panels, show signal from Gag-GFP; middle panels, images showing Tsg101-Myc signal; bottom panels, merged images showing signals from Gag-GFP and Tsg101-Myc. Boxes frame a region of the plasma membrane. F) Pearson's coefficient of correlation values determined for the images shown. Error bars indicate the highest values obtained for similar samples. n=6.
FIG. 26A-D. N16 binds covalently to C73 in the Tsg101 UEV domain. A) Activation of N16 to reactive sulfenamide. N16 (i) is converted to intermediates sulfenic acid (ii) and sulfenamide (iii) through acid catalysis to yield a covalently attached N16-Tsg101 UEV complex (iv). B) HNCACB Cβ regions for residues C73, L74, 186 and C87 of Tsg101 without (−) and with (+) N16. C) Examination by fluorescence microscopy of cells co-expressing GagWT-GFP and Tsg101WT-Myc, Tsg101C73A-Myc or Tsg101C87A-Myc in the absence and presence of 50 μM N16. n=3 D) Pearson's coefficient of correlation values.
Hela cells grown on cover slips were transfected with pCMV-Gag-EGFP alone or together with pLLEXP1-hTsg101-myc. Cells were fixed in 4% formaldehyde (Sigma) and permeabilized in 0.1% Triton X-100. Tsg101 was detected in the samples by indirect immunofluorescence using anti-myc Mab and Texas Red anti-mouse IgG. Nuclei were stained with Hoechst. Images were captured on an inverted fluorescence/differential-interference contrast (dic) Zeiss Axiovert 200M deconvolving fluorescence microscope operated by AxioVision Version 4.5 (Zeiss) software and deconvolved by using the constrained iterative method (AxioVision). Protein co-localization was assessed in 40 or more cells by determination of Pearson's coefficient of correlation using Image J software and regarded as significant when a value of 0.6 or higher (equivalent to a 95% level of confidence for that number of cells) was observed (Manders, E. M. M., et al. (1993)).

On to `COc1ccc2nc([S@@+]([O-])Cc3ncc(C)c(OC)c3C)[nH]c2c1` [F15, esomeprazole], for which the “Tm shift of Tsg101 melting curve” value on Tsg101 UEV domain is on record as 5 degree. Besides, the “reduction of intensity of Gag-Tsg101 co-localization signal” value in experiment [1] is given as ~2 fold.

On to `COc1ccc2[nH]c([S+]([O-])Cc3ncc(C)c(OC)c3C)nc2n1` (stereo not drawn) [N16, tenatoprazole], for which, on Tsg101 UEV domain, the “Tm shift of Tsg101 melting curve” value was determined as 12 degree. Moreover, in experiment [1] (50 μM N16), the “co-localization of Gag and Tsg101C73A-myc” value is listed as “failed to prevent co-localization”; the “co-localization of Gag and Tsg101C87A-myc” value was “effectively eliminated co-localization”. The “reduction of intensity of Gag-Tsg101 co-localization signal” value in experiment [1] was ~2 fold.
